Patent US10160755B2 (Plexxikon Inc., priority 2015, dated 2018)

Key:
FLT3-ITD = target: T1, FLT3-ITD (Homo sapiens, UniProt P36888); test: FLT3-ITD biochemical kinase assay (AlphaScreen)
T1 construct: FLT3-ITD; Invitrogen #PV6190
T1 sequence (P36888 1-993): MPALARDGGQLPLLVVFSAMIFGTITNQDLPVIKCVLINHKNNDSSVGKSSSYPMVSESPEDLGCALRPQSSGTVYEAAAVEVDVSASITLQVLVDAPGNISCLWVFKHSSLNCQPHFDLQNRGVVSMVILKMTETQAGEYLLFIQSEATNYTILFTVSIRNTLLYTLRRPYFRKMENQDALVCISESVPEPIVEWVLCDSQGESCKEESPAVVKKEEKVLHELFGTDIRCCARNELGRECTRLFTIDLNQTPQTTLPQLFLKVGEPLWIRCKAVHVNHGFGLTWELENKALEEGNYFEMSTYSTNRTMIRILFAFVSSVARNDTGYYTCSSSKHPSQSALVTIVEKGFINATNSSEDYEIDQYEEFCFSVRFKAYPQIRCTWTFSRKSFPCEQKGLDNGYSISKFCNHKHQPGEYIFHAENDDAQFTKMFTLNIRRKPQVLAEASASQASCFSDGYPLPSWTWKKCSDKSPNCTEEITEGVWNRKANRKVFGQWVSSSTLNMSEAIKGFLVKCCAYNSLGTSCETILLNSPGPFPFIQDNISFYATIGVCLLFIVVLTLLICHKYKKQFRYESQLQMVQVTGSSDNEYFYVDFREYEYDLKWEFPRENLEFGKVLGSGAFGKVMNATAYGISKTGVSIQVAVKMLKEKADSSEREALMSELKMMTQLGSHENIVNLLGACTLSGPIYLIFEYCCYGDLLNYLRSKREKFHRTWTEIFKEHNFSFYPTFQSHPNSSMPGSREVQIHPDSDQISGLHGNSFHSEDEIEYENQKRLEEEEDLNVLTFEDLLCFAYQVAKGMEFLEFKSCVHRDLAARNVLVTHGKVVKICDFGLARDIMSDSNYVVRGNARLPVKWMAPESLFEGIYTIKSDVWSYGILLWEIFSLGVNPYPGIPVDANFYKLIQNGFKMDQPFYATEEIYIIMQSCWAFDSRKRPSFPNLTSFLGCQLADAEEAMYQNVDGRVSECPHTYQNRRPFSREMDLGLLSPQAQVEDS
Description: (§1) In order to determine the effect of compounds on FLT3 catalytic activity, kinase assays using recombinant enzymes and AlphaScreen® technology have been established. When the kinases are catalytically active, they phosphorylate a biotinylated peptide substrate on tyrosine residues. Using AlphaScreen® technology, the ability of the compounds to affect the catalytic activity of the kinases can be measured quantitatively. The peptide substrate is immobilized by the AlphaScreen® Streptavidin Donor beads and, upon phosphorylation by a tyrosine kinase, can bind to AlphaScreen® Anti-Phosphotyrosine (PY20) Acceptor beads. Upon excitation of these beads with laser light at 680 nm, singlet oxygen is produced. This singlet oxygen is rapidly quenched, unless the AlphaScreen® Anti-Phosphotyrosine (PY20) Acceptor beads are in close proximity, in which case a proximity signal can be measured at 580 nm. In the presence of catalytic activity, there is a very strong proximity signal. Selective kinase inhibitors affect a decrease in this proximity signal through a decrease in tyrosine phosphorylation of the peptide substrate.
(§2) Substrate • Poly (Glu4-Tyr) Peptide, biotin conjugate [Biotin-GG(EEEEY)10EE (SEQ ID NO: 4)] • UBI/Millipore #12-440 • Final concentration=30 nM
(§3) Adenosine Triphosphate (ATP) • Sigma #A-3377 • Final concentration for IC50 determination=10 μM (FLT3-D835Y) or 100 μM (FLT3 or FLT3-ITD) • Detection Reagent • AlphaScreen® Phosphotyrosine (PY20) Assay Kit • Perkin-Elmer #6760601M • Final concentration=10 μg/mL
(§4) Centrifuge 1 minute, shake to mix, and incubate as follows:
(§5) • Mix Streptavidin Donor beads at 6× final concentration in Stop/Detection buffer. • Add 5 μL Streptavidin Donor beads to the reaction plate. Centrifuge 1 minute, shake to mix, and incubate at room temperature for 20 minutes. • Mix Anti-Phosphotyrosine (PY20) Acceptor beads at 6× final concentration in Stop/Detection buffer. • Add 5 μL Anti-Phosphotyrosine (PY20) beads to the reaction plate. • Centrifuge 1 minute, shake to mix, and incubate at room temperature for 60 minutes. • Read plate on Wallac EnVision™ 2103 Multilabel Reader. In Vivo Model System Testing

FLT3-D835Y = target: T2, FLT3-D835Y (Homo sapiens, UniProt P36888, D835Y); test: FLT3-D835Y biochemical kinase assay (AlphaScreen)
T2 construct: purchased Invitrogen PV3967
T2 sequence (P36888 27-993 D835Y): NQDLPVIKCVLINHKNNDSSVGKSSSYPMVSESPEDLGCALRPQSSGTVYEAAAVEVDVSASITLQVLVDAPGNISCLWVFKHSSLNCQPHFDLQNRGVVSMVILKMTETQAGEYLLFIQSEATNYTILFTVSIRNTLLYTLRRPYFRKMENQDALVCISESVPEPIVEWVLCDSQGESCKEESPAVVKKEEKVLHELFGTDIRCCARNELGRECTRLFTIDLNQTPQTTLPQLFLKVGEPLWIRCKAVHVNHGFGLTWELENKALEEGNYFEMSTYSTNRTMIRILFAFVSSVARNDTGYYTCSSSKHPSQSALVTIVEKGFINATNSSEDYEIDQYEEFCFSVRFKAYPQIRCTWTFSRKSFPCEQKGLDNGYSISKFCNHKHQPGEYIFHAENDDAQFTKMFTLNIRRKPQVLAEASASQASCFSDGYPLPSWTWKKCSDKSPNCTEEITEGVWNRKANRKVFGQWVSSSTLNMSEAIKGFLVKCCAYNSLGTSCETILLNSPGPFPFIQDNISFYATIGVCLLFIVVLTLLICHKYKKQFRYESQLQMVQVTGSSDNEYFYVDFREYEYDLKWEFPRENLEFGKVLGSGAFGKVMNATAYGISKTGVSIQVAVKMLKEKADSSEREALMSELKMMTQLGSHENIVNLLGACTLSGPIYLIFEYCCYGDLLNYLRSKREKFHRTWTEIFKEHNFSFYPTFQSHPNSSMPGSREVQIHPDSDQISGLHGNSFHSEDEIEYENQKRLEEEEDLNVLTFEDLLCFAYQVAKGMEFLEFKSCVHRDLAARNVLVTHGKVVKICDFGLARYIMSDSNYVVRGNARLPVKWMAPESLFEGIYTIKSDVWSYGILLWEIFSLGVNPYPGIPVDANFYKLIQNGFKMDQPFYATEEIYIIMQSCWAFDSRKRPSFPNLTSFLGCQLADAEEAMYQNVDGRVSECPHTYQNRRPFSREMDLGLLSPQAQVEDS
Description: as §1, §2, §3, §4, §5

| SMILES | IC50 (FLT3-ITD) | IC50 (FLT3-D835Y) |
| --- | --- | --- |
| COc1cc(-c2cnc3[nH]cc(-c4ccc5ncn(-c6ccc(F)cc6)c5c4)c3n2)ccn1 [P-206, 7-[3-(4-fluorophenyl)benzimidazol-5-yl]-2-(2-methoxy-4-pyridyl)-5H-pyrrolo[2,3-b]pyrazine] | 0.0001 to 1 µM | 0.0001 to 1 µM |
| COc1cnc2[nH]cc(-c3cnc4ncn(Cc5ccccc5)c4c3)c2c1 [P-143, 1-benzyl-6-(5-methoxy-1H-pyrrolo[2,3-b]pyridin-3-yl)imidazo[4,5-b]pyridine] | 0.0001 to 1 µM | 0.0001 to 1 µM |
| COc1cc(-c2cnc3[nH]cc(-c4ccc5ncn(C6CCCNC6)c5c4)c3c2)ccn1 (stereo not drawn) [P-138, 5-(2-methoxy-4-pyridyl)-3-[3-(3-piperidyl)benzimidazol-5-yl]-1H-pyrrolo[2,3-b]pyridine] | 0.0001 to 1 µM | 0.0001 to 1 µM |
| COc1cc(-c2cnc3[nH]cc(-c4ccc5ncn(C)c5c4)c3n2)ccc1Cl [P-149, 2-(4-chloro-3-methoxy-phenyl)-7-(3-methylbenzimidazol-5-yl)-5H-pyrrolo[2,3-b]pyrazine] | 0.0001 to 1 µM | 0.0001 to 1 µM |
| COc1cnc2[nH]cc(-c3ccc4ncn(Cc5ccc(Cl)cc5)c4c3)c2c1 [P-111, 1-[(4-chlorophenyl)methyl]-6-(5-methoxy-1H-pyrrolo[2,3-b]pyridin-3-yl)benzimidazole] | 0.0001 to 1 µM | 0.0001 to 1 µM |
| Cn1cnc2ccc(-c3c[nH]c4ncc(-c5cccc(CC(=O)O)c5)cc34)cc21 [P-185, 2-[3-[3-(3-methylbenzimidazol-5-yl)-1H-pyrrolo[2,3-b]pyridin-5-yl]phenyl]acetic acid] | 0.0001 to 1 µM | 0.0001 to 1 µM |
| Cn1cnc2ccc(-c3c[nH]c4ncc(C#Cc5ccccc5)cc34)cc21 [P-139, 1-methyl-6-[5-(2-phenylethynyl)-1H-pyrrolo[2,3-b]pyridin-3-yl]benzimidazole] | 0.0001 to 1 µM | 0.0001 to 1 µM |
| Cn1cnc2ccc(-c3c[nH]c4ncc(-c5ccc(C#N)s5)cc34)cc21 [P-179, 5-[3-(3-methylbenzimidazol-5-yl)-1H-pyrrolo[2,3-b]pyridin-5-yl]thiophene-2-carbonitrile] | 0.0001 to 1 µM | 0.0001 to 1 µM |
| COc1cc(-c2cnc3[nH]cc(-c4ccc5ncsc5c4)c3n2)cc(C)n1 [P-173, 6-[2-(2-methoxy-6-methyl-4-pyridyl)-5H-pyrrolo[2,3-b]pyrazin-7-yl]-1,3-benzothiazole] | 0.0001 to 1 µM | 0.0001 to 1 µM |
| c1cc(-c2cnc3[nH]cc(-c4ccc5ncsc5c4)c3n2)cc(N2CCOCC2)c1 [P-163, 4-[3-[7-(1,3-benzothiazol-6-yl)-5H-pyrrolo[2,3-b]pyrazin-2-yl]phenyl]morpholine] | 0.0001 to 1 µM | 0.0001 to 1 µM |
| Fc1ccc(-n2cnc3ccc(-c4c[nH]c5ncc(-c6cccc(OC(F)(F)F)c6)nc45)cc32)cc1 [P-192, 7-[3-(4-fluorophenyl)benzimidazol-5-yl]-2-[3-(trifluoromethoxy)phenyl]-5H-pyrrolo[2,3-b]pyrazine] | 0.0001 to 1 µM | 0.0001 to 1 µM |
| O=C(NC1CC1)c1cccc(-c2cnc3[nH]cc(-c4ccc5ncsc5c4)c3n2)c1 [P-162, 3-[7-(1,3-benzothiazol-6-yl)-5H-pyrrolo[2,3-b]pyrazin-2-yl]-N-cyclopropyl-benzamide] | 0.0001 to 1 µM | 0.0001 to 1 µM |
| N#Cc1cccc(S(=O)(=O)Nc2cnc3[nH]cc(-c4ccc5ncn(C6CCCNC6)c5c4)c3c2)c1 (stereo not drawn) [P-234, 3-cyano-N-[3-[3-(3-piperidyl)benzimidazol-5-yl]-1H-pyrrolo[2,3-b]pyridin-5-yl]benzenesulfonamide] | 0.0001 to 1 µM | 0.0001 to 1 µM |

The next lines start with the values.

| IC50 (FLT3-ITD) | IC50 (FLT3-D835Y) | SMILES |
| --- | --- | --- |
| 0.0001 to 1 µM | 0.0001 to 1 µM | CC(C)(C)n1cnc2ccc(-c3c[nH]c4ncc(-c5cnc(C6CC6)nc5)nc34)cc21 [P-342, 7-(3-tert-butylbenzimidazol-5-yl)-2-(2-cyclopropylpyrimidin-5-yl)-5H-pyrrolo[2,3-b]pyrazine] |
| 0.0001 to 1 µM | 0.0001 to 1 µM | COc1cc(-c2cnc3[nH]cc(-c4ccc5ncn(C(C)(C)C)c5c4)c3n2)cc(OC)n1 [P-194, 7-(3-tert-butylbenzimidazol-5-yl)-2-(2,6-dimethoxy-4-pyridyl)-5H-pyrrolo[2,3-b]pyrazine] |
| 0.0001 to 1 µM | 0.0001 to 1 µM | CC(C)(C)n1cnc2ccc(-c3c[nH]c4ncc(-c5ccnc(C6CC6)c5)nc34)cc21 [P-351, 7-(3-tert-butylbenzimidazol-5-yl)-2-(2-cyclopropyl-4-pyridyl)-5H-pyrrolo[2,3-b]pyrazine] |
| 0.0001 to 1 µM | 0.0001 to 1 µM | CC(C)(C)n1cnc2ccc(-c3c[nH]c4ncc(-c5cccc(C#N)c5)cc34)cc21 [P-199, 3-[3-(3-tert-butylbenzimidazol-5-yl)-1H-pyrrolo[2,3-b]pyridin-5-yl]benzonitrile] |
| 0.0001 to 1 µM | 0.0001 to 1 µM | CC(C)(C)n1cnc2ccc(-c3c[nH]c4ncc(-c5ccc(F)nc5)nc34)cc21 [P-360, 7-(3-tert-butylbenzimidazol-5-yl)-2-(6-fluoro-3-pyridyl)-5H-pyrrolo[2,3-b]pyrazine] |
| 0.0001 to 1 µM | 0.0001 to 1 µM | COc1cccc(-c2cnc3[nH]cc(-c4ccc5ncn(C)c5c4)c3n2)c1 [P-145, 2-(3-methoxyphenyl)-7-(3-methylbenzimidazol-5-yl)-5H-pyrrolo[2,3-b]pyrazine] |
| 0.0001 to 1 µM | 0.0001 to 1 µM | CN1CCN(c2ncc(-c3cnc4[nH]cc(-c5ccc6ncn(C(C)(C)C)c6c5)c4n3)cn2)CC1 [P-349, 7-(3-tert-butylbenzimidazol-5-yl)-2-[2-(4-methylpiperazin-1-yl)pyrimidin-5-yl]-5H-pyrrolo[2,3-b]pyrazine] |
| 0.0001 to 1 µM | 0.0001 to 1 µM | Cn1cnc2ccc(-c3c[nH]c4ncc(-c5cnn(CC(F)(F)F)c5)nc34)cc21 [P-176, 7-(3-methylbenzimidazol-5-yl)-2-[1-(2,2,2-trifluoroethyl)pyrazol-4-yl]-5H-pyrrolo[2,3-b]pyrazine] |
